Results as given in ChEMBL document CHEMBL3132769, “Fragment growing to retain or alter the selectivity of anchored kinase hinge-binding fragments” (Medchemcomm, 2014).

Key:
[1] = molecular target: Mitogen-activated protein kinase 14 (Homo sapiens) (UniProt Q16539); test: Inhibition of human truncated p38 alpha expressed in Escherichia coli cell assessed as substrate phosphorylation using fluorescence-labelled peptides as substrate at 0.2 uM after 90 mins by microfluidic peptide phosphorylation assay
Chain of Mitogen-activated protein kinase 14 (Homo sapiens) (Q16539 whole entry, the tested form may be a part): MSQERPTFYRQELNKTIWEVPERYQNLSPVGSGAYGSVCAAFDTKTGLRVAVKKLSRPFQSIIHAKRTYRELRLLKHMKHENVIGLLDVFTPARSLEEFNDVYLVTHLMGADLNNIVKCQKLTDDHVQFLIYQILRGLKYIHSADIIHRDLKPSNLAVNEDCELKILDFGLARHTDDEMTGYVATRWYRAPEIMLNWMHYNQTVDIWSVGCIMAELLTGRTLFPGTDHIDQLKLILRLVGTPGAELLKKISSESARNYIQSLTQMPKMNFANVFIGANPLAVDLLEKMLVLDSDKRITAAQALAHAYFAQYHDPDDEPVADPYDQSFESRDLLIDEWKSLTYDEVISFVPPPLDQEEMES

[2] = molecular target: Calcium/calmodulin-dependent protein kinase type II subunit beta (Homo sapiens) (UniProt Q13554); test: Inhibition of human CAMK2 beta catalytic domain expressed in baculovirus assessed as substrate phosphorylation using fluorescence-labelled peptides as substrate at 8 uM after 90 mins by microfluidic peptide phosphorylation assay
Chain of Calcium/calmodulin-dependent protein kinase type II subunit beta (Homo sapiens) (Q13554 whole entry, the tested form may be a part): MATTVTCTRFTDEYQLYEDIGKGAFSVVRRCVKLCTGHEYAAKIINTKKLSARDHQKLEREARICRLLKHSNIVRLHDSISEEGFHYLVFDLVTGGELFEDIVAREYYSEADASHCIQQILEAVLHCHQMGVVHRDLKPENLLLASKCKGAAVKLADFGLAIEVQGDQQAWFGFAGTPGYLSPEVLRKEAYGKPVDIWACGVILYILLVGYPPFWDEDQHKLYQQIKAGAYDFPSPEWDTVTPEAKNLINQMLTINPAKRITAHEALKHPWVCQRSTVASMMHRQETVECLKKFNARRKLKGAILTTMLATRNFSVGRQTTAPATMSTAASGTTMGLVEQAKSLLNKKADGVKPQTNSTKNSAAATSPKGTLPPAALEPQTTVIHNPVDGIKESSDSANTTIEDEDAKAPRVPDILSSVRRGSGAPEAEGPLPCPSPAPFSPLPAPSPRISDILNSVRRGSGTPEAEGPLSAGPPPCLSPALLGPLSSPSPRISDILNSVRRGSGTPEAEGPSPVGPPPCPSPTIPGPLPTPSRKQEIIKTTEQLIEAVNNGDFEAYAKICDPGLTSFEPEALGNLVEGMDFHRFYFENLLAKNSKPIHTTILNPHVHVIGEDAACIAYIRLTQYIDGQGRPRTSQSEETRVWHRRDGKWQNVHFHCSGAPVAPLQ

[3] = system: Tyrosine-protein kinase ABL1 (Homo sapiens), P00519 [H396P]; test: Inhibition of human truncated ABL H396P mutant expressed in baculovirus assessed as substrate phosphorylation using fluorescence-labelled peptides as substrate at 8 uM after 90 mins by microfluidic peptide phosphorylation assay
[4] = molecular target: Dual specificity tyrosine-phosphorylation-regulated kinase 1A (Rattus norvegicus) (UniProt Q63470); test: Inhibition of rat full length DYRK1a expressed in Escherichia coli cell assessed as substrate phosphorylation using fluorescence-labelled peptides as substrate at 2 uM after 90 mins by microfluidic peptide phosphorylation assay
[5] = system: Tyrosine-protein kinase ABL1 (Homo sapiens), P00519 [Q252H]; test: Inhibition of human truncated ABL Q252H mutant expressed in baculovirus assessed as substrate phosphorylation using fluorescence-labelled peptides as substrate at 0.1 uM after 90 mins by microfluidic peptide phosphorylation assay
[6] = molecular target: T1, Inhibitor of nuclear factor kappa-B kinase subunit beta (Homo sapiens) (UniProt O14920); test: Inhibition of human full length IKK beta expressed in baculovirus assessed as substrate phosphorylation using fluorescence-labelled peptides as substrate at 0.1 uM after 90 mins by microfluidic peptide phosphorylation assay
T1 sequence (whole entry): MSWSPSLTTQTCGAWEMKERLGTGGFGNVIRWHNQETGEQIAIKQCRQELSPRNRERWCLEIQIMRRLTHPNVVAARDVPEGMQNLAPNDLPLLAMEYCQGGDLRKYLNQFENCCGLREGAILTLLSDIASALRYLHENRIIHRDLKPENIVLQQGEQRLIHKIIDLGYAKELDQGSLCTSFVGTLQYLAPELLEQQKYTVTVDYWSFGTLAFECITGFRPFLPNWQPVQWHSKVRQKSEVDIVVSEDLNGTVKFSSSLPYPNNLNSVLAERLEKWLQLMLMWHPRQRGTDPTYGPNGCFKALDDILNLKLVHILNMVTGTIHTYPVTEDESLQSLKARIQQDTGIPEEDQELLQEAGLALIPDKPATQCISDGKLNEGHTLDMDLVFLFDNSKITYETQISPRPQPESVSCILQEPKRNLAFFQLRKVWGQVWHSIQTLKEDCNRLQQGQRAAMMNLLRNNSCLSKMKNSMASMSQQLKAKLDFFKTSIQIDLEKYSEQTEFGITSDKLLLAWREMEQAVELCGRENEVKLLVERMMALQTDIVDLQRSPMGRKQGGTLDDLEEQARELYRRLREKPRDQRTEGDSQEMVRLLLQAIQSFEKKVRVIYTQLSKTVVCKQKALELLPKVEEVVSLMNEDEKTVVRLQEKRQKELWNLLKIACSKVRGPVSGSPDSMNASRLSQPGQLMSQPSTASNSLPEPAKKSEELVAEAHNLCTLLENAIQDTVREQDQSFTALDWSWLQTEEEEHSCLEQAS

[7] = molecular target: T2, Serine/threonine-protein kinase D1 (Homo sapiens) (UniProt Q15139); test: Inhibition of human full length PKD1 expressed in baculovirus assessed as substrate phosphorylation using fluorescence-labelled peptides as substrate at 420 uM after 90 mins by microfluidic peptide phosphorylation assay
T2 sequence (whole entry): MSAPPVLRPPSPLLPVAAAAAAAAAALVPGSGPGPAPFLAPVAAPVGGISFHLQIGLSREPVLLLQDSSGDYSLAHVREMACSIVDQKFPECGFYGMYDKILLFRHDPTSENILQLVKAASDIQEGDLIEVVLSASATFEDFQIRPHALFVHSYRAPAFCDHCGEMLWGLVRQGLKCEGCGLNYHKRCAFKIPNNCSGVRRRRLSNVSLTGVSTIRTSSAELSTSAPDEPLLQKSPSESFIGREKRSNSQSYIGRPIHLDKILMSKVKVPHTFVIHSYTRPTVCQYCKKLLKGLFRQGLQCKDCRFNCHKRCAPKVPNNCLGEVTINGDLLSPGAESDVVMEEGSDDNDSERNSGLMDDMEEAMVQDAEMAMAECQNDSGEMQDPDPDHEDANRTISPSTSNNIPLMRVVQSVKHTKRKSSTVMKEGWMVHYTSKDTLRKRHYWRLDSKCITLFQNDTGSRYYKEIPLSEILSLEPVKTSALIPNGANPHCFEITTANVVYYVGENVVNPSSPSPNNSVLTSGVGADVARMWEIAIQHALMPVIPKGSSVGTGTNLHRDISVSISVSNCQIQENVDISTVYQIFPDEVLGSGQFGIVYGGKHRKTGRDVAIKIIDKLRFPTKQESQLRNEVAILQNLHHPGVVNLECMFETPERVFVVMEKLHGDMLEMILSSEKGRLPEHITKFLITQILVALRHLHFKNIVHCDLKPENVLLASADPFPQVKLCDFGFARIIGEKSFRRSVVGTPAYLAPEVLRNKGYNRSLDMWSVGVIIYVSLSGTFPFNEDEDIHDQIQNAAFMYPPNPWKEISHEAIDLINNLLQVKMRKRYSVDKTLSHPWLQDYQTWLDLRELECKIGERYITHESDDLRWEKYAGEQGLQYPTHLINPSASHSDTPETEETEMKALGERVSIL

[8] = molecular target: Protein kinase C theta type (Homo sapiens) (UniProt Q04759); test: Inhibition of human truncated PKC theta expressed in baculovirus assessed as substrate phosphorylation using fluorescence-labelled peptides as substrate at 70 uM after 90 mins by microfluidic peptide phosphorylation assay
Chain of Protein kinase C theta type (Homo sapiens) (Q04759 whole entry, looked up, the tested form may be a part): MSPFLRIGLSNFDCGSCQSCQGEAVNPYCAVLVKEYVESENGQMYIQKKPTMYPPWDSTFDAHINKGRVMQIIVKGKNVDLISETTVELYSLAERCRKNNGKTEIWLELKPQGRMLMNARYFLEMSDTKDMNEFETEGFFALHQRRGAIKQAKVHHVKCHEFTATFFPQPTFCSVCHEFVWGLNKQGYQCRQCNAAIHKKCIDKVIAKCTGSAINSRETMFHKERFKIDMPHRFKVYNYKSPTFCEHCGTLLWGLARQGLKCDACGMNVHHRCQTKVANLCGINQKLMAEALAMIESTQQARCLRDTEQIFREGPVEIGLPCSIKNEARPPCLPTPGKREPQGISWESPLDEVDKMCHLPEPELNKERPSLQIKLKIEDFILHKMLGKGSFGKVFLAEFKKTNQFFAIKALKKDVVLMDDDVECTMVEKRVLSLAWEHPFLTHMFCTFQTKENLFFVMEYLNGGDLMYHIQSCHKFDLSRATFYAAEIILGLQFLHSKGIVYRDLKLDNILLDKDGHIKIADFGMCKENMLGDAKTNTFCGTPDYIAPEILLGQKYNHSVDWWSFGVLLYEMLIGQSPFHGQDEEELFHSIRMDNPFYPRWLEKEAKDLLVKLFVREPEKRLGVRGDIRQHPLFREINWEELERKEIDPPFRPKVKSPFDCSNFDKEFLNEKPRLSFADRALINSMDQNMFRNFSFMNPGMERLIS

[9] = molecular target: Mitogen-activated protein kinase 14 (Homo sapiens) (UniProt Q16539); test: Inhibition of human truncated p38 alpha expressed in Escherichia coli cell assessed as substrate phosphorylation using fluorescence-labelled peptides as substrate at 70 uM after 90 mins by microfluidic peptide phosphorylation assay

With `Clc1ccc(C2(c3ccc(-c4ncnc5[nH]cnc45)cc3)CCNCC2)cc1` the inhibition [1] was 5%.
With `NCC1CCN(c2ncnc3[nH]ccc23)CC1` the inhibition [2] was 81% and the inhibition [3] was 20.5%.
Work on `NC1CCN(c2ncnc3[nH]ccc23)CC1` yielded an inhibition [4] of 0.5%.
`C[C@H](CN(C)C)Oc1nc(Nc2cc3cccc(Cl)c3cn2)cnc1C#N` gave an inhibition [5] of 4% and an inhibition [6] of 3.5%.
`c1nc(N2CCOCC2)c2nc[nH]c2n1` was tested, and the inhibition [7] was 70%.
Molecule `CNCc1ccc(-c2ncnc3[nH]cnc23)cc1` has an inhibition [8] of 67.5% and an inhibition [9] of 0%.
